Measured values as given in patent EP0831877B1, “METABOLIC EFFECTS OF CERTAIN GLUTATHIONE ANALOGS” (TELIK, INC., priority 1995, dated 1996).
One block for each compound: values may come before it.

What was measured:
Human GST P1-1 = Human GST P1-1 (Homo sapiens, UniProt P09211); assay: inhibition of GST isoenzyme P1-1 (Ki); assay type: biochemical; settings: for Rank order: rank of Ki for Human GST P1-1
[1] = tested on: HT-29 (human colon adenocarcinoma) cells; assay: modified clonogenic assay, potentiation of chlorambucil cytotoxicity; assay type: cell-based; settings: chlorambucil, mean ±S.D. of 2-3 experiments
Method: HT-29 (human colon adenocarcinoma) cells were obtained from Dr. Roberto Ceriani (Cancer Research Fund of Contra Costa County, Walnut Creek, CA) and were used in log phase of growth unless otherwise specified. Chlorambucil (CMB) was obtained from Sigma (St. Louis, MO) and was dissolved in 100% ethanol. All GST inhibitors were dissolved in ethanol, DMSO, or water just prior to use. The same amount of solvent added to culture medium served as the vehicle control.
In a modified clonogenic assay for cytotoxicity, cells were suspended at 2 x 10^5 cells/ml in serum-free medium in the presence of vehicle or inhibitor. […] Cells were incubated for 2 hours, then varying doses of CMB were added. At the end of a second 2-hour incubation, cells were diluted to 7.5-10 x 10^3/ml in serum-containing medium and plated in quadruplicate at 200 µl/well in Microtest III microtiter plates.
Plates were incubated for 6 days and assayed by a modified methylene blue method. Briefly, cells were fixed with 1.25% glutaraldehyde in PBS then stained with 0.05% methylene blue in distilled water. Plates were washed several times in distilled water to remove unretained dye and retained dye was resolubilized in 0.03 N HCl. Plates were read at 650 nm in a Molecular Devices Vmax plate reader (Molecular Devices, Redwood City, CA). […] A dose modification factor (DMF), a measure of potentiation of cytotoxicity, was calculated for each inhibitor by dividing the IC50 value of CMB without inhibitor treatment by the IC50 value for CMB with inhibitor treatment.

HT-29 cells = assay: Cytosensor Microphysiometer acidification rates; assay type: cell-based, human; settings: 4 hours pretreatment, TER199 20 µM, ethacrynic acid 50 µM
Method: The metabolic effects related to toxicity of the compounds of the invention on HT-29 cells, were tested using a Cytosensor Microphysiometer made by Molecular Devices, Inc., Menlo Park, CA and described in McConnell, H.M. et al. Science (1992) 257:1906-1912 and by Wada, H.G. et al. AATEX (1992) 1:154-164. Changes in pH of the culture medium are measured as a function of cellular metabolism. Acidification rates of the small volume of liquid flowing over the cells correlate with the number of live cells in the reaction chamber; a reduction of acidification rate reflects reduced numbers of surviving cells. […] The medium was then replaced with serum-free low buffer capacity medium and Microphysiometer analysis was initiated.

HT4-1 tumors = assay: potentiation of melphalan toxicity in vivo, implanted HT4-1 tumors; set-up: species or system Male scid mice; settings: for tumor volume as a percentage of control tumor volume: seven days, when control tumors reached 1500 mm^3
Method: Male scid mice were subcutaneously implanted with HT4-1 tumors from donor mice. HT4-1 is a subclone of HT-29, a human colon cancer. When tumors reached approximately 100 mm^3, the mice were randomized into six treatment groups and treated for seven days as follows: • 1. 5 mg/kg melphalan; • 2. 10 mg/kg ethacrynic acid; • 3. […] 5 mg/kg melphalan + 10 mg/kg ethacrynic acid; • 5.
The mice were monitored for weight changes and tumor volumes were determined by measurement with calipers. The tumor growth was monitored until the average tumor size reached 1500 mm^3 for all groups except melphalan with ethacrynic acid.
The results were computed in terms of the tumor volume in the drug treated mice as a percentage of control tumor volume (i.e., in the group administered vehicle alone). In group 1, administered melphalan alone, the tumors were approximately 75% of the volume of controls. […] For group 4 administered a combination of melphalan and ethacrynic acid, the volumes were approximately 35% of control. […] (The volume measurements were taken at the time control tumors reached 1500 mm^3.)

bone marrow GM-CFU [2] = assay: 5-fluorouracil-induced GM-CFU suppression in mice
Method: The control group was not treated with either drug. Bone marrows were harvested and GM-CFUs were determined 24 hours after the final injection.
Values are the mean ± SE of three mice per point.

bone marrow GM-CFU [3] = assay: stimulation of bone marrow GM-CFU after administration to mice; assay type: in vivo, B6D2F1 mice; settings: bone marrow harvested 24 hours after administering
Method: In an illustrative assay three B6D2F1 mice were treated with various doses of benzyl PG intraperitoneally.
Mice in the control group were injected with water or saline. Bone marrow cells were harvested 24 hours after drug treatment and added to alpha minimum essential medium (alpha MEM) supplemented with methylcellulose (0.8% w/v), fetal bovine serum (20% v/v), deionized BSA (1% w/v), Pokeweed mitogen-stimulated spleen-cell conditioned medium (PWM-SCCM)^1 (10% v/v) and gentamycin (50 Tg/ml). One ml aliquots were plated (four replicate plates) and incubated for seven days at 37 °C. […] Spleens were removed aseptically from four male B6D2F1 mice enforced through a 200 Tm wire mesh screen to obtain a single cell suspension. Ten ml of the suspension (2-4 X 10^7 cell/ml was added to 90 ml alpha-MEM supplemented with 1% deionized BSA, 50 Tg/ml gentamicin, 0.3% freshly reconstituted pokeweed antigen, 10 µM 2-mercaptoethanol. The mixture was incubated for 5 days at […] in a 5% CO2 atmosphere and the result-ing conditioned medium was centrifuged at 800g for ten minutes and filtered through a 0.22 Tm filter. Aliquots were kept frozen at […] until use.
Bone marrow was harvested 24 hours after administering the compounds and GM-CFU levels measured as described above.

GST M1a-1a = target: T1, GST M1a-1a (Homo sapiens, UniProt P09488); assay: inhibition of GST isoenzyme M1a-1a (Ki); assay type: biochemical; settings: determined on unesterified form
T1 sequence (P09488 1-218): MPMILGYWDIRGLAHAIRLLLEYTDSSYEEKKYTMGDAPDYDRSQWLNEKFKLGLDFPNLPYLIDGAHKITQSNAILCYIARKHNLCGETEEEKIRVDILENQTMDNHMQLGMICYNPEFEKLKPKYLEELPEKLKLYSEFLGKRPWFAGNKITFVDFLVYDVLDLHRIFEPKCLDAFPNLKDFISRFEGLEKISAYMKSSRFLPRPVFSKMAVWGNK

GST M2-2 = target: T2, GST M2-2 (Homo sapiens, UniProt P28161); assay: inhibition of GST isoenzyme M2-2 (Ki); assay type: biochemical; settings: determined on unesterified form
T2 sequence (P28161 1-218): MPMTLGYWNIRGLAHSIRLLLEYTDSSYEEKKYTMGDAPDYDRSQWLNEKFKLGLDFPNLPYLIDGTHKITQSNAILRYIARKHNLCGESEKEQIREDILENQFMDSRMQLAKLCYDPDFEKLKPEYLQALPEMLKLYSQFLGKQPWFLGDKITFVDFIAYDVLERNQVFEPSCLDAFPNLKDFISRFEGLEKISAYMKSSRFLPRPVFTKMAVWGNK

GST A1-1 = target: T3, GST A1-1 (Homo sapiens, UniProt P08263); assay: inhibition of GST isoenzyme A1-1 (Ki); assay type: biochemical; settings: determined on unesterified form
T3 sequence (P08263 1-222): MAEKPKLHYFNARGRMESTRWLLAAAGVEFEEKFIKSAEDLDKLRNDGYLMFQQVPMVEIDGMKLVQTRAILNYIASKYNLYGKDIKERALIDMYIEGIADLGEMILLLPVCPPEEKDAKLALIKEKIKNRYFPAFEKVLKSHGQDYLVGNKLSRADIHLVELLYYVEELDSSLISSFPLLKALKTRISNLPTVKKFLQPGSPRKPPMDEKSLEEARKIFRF

bone marrow GM-CFU [4] = settings: melphalan 10 mg/kg i.p. alone

Human GST P1-1, sequence (P09211 2-210 limits assumed): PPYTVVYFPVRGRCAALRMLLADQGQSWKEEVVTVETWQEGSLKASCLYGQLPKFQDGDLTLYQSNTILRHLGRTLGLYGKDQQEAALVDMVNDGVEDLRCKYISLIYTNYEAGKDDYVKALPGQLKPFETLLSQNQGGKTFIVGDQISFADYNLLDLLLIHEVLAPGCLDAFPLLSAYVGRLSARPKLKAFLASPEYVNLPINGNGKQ

Compound: CCCCCCSC[C@H](NC(=O)CC[C@H](N)C(=O)O)C(=O)N[C@@H](C(=O)O)c1ccccc1 [TER102, γE-C(hexyl)-ϕG]
specificity for GST P1-1 (Human GST P1-1; among TER117, TER102, TER211, TER143): reasonably specific | Rank order (Human GST P1-1): 2 | DMF (dose modification factor), Parent Compound ([1]; HT-29, dose tested 100 µM): 1.1±0.02

Compound: C=C(CC)C(=O)c1ccc(OCC(=O)O)c(Cl)c1Cl [ethacrynic acid, reference compound]
effect on acidification rates, compound alone (Figure 2) (HT-29 cells; no chlorambucil): Neither γE-C(Bz)-ϕG diethylester (TER199) nor ethacrynic acid alone had any appreciable effect | effect of pretreatment on acidification rates with chlorambucil (Figure 2) (HT-29 cells; then 100 µM chlorambucil): potentiated the effect of chlorambucil | time until average tumor size reached 1500 mm^3 (HT4-1 tumors; 5 mg/kg melphalan + 10 mg/kg ethacrynic acid, volume not reached): > 72 days | tumor volume as a percentage of control tumor volume (HT4-1 tumors; group 4: 5 mg/kg melphalan + 10 mg/kg ethacrynic acid): approximately 35%

Compound: O=c1[nH]cc(F)c(=O)[nH]1 [5-FU, 5-fluorouracil, reference compound]
GM-CFU (bone marrow GM-CFU [2]; 75 mg/kg 5-FU IP alone): 15 % of control | GM-CFU (bone marrow GM-CFU [2]; 5-FU 75 mg/kg i.p. alone, harvest 48 hours): 47 % of control | GM-CFU (bone marrow GM-CFU [2]; 5-FU 150 mg/kg i.p. alone, harvest 48 hours): 8 % of control | GM-CFU by day 4 after 5-FU administration (Figure 9b) (bone marrow GM-CFU [2]; 5-FU only): approximately equal to control

Compound: N[C@@H](Cc1ccc(N(CCCl)CCCl)cc1)C(=O)O [melphalan, reference compound]
tumor volume as a percentage of control tumor volume (HT4-1 tumors; group 1: 5 mg/kg melphalan alone): approximately 75% | GM-CFU remaining (bone marrow GM-CFU [4]): 2%

More lines, main results first:

Rank order (Human GST P1-1): 4
Compound: CCCCCCCCSC[C@H](NC(=O)CC[C@H](N)C(=O)O)C(=O)NCC(=O)O [TER143, γE-C(octyl)-G]

Rank order (Human GST P1-1): 3
Compound: γE-C(naphthyl)-G [TER211]

Ki (Human GST P1-1; determined on unesterified form): 1200 nM | Ki (GST M1a-1a): 10 nM | Ki (GST M2-2): 1500 nM | Ki (GST A1-1): 4200 nM
Compound: γE-C(naphthyl)-G [TER206]
effect on GM-CFU, analogs of TER199 (Figure 8) (bone marrow GM-CFU [3]): inactive | DMF (dose modification factor), Diethyl ester ([1]; HT-29, dose tested 12.5 µM): 1.21±0.01 | DMF of DEE ([1]; diethyl ester): 1.213
